Data from US9156801B2, “2-substituted oleanolic acid derivative, method preparing for same, and application thereof” (HANGZHOU BENSHENG PHARMACEUTICAL CO., LTD., priority 2011, dated 2015).
Converted amounts (≈) assume the structure as drawn.

What was measured:
H9 cell line = experiment: leukemia cell growth inhibition, MTT; type: cell-based; conditions: Homo sapiens; for IC50: H9, 72 h; for inhibition at 16 µg/mL: H9, 16 μg/mL compound, 72 h, read-out: IR (cell proliferation inhibition rate)
Method in brief: (§1)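 Leukemia cells (6000 per well) are grown in 1640 medium containing 10% fetal bovine serum, treated with several concentrations of test derivative, and incubated 72 hours at 37° C in 5% CO2. The relative viable count is then measured by MTT.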

NB4 cell line = experiment: leukemia cell growth inhibition, MTT; type: cell-based; conditions: Homo sapiens, NB-4; for inhibition at 16 µg/mL: NB4, 16 μg/mL compound, 72 h, read-out: IR (cell proliferation inhibition rate); for IC50: NB4, 72 h
Method in brief: as §1

Kasumi-1 cell line = experiment: leukemia cell growth inhibition, MTT; type: cell-based; conditions: Homo sapiens; for inhibition at 16 µg/mL: Kasumi-1, 16 μg/mL compound, 72 h, read-out: IR (cell proliferation inhibition rate); for IC50: Kasumi-1, 72 h
Method in brief: as §1

K562/adr cell line = experiment: leukemia cell growth inhibition, MTT; type: cell-based; conditions: Homo sapiens, 72 h; for IC50: K562/Adr; for inhibition at 16 µg/mL: K562/adr, 16 μg/mL compound, read-out: IR (cell proliferation inhibition rate)
Method in brief: as §1

Jurkat cell line = experiment: leukemia cell growth inhibition, MTT; type: cell-based; conditions: Homo sapiens, 72 h; for inhibition at 16 µg/mL: 16 μg/mL compound, read-out: IR (cell proliferation inhibition rate)
Method in brief: as §1

Hep G2 cell line = experiment: solid tumor cell growth inhibition, MTT; type: cell-based, human; conditions: Homo sapiens; for inhibition at 16 µg/mL: HepG2, 72 h, Hep G2, 16 μg/mL compound, 72 h, read-out: IR (cell proliferation inhibition rate); for IC50: HepG2, Hep G2, 72 h
Method in brief: (§2)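 Cells grown in DMEM high glucose supplemented with 10% fetal bovine serum were plated at 4000 per well. After 24 h at 37° C in 5% CO2, varying compound concentrations were added for a further 72 h before MTT determination of viable cells.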

U87 MG cell line = experiment: solid tumor cell growth inhibition, MTT; type: cell-based; conditions: Homo sapiens, U-87 MG, 72 h; for inhibition at 16 µg/mL: 16 μg/mL compound, read-out: IR (cell proliferation inhibition rate)
Method in brief: as §2

Hep-2 cell line = experiment: solid tumor cell growth inhibition, MTT; type: cell-based; conditions: Homo sapiens; for IC50: HEp-2, 72 h; for inhibition at 16 µg/mL: Hep-2, 16 μg/mL compound, 72 h, read-out: IR (cell proliferation inhibition rate)
Method in brief: as §2

RKO cell line = experiment: solid tumor cell growth inhibition, MTT; type: cell-based; conditions: Homo sapiens, 72 h; for inhibition at 16 µg/mL: 16 μg/mL compound, read-out: IR (cell proliferation inhibition rate)
Method in brief: as §2

SK-OV-3 cell line = experiment: solid tumor cell growth inhibition, MTT; type: cell-based; conditions: Homo sapiens; for IC50: SK-OV-3, 72 h; for inhibition at 16 µg/mL: SK-OV-3, 16 μg/mL compound, 72 h, read-out: IR (cell proliferation inhibition rate)
Method in brief: as §2

MG-63 cell line = experiment: solid tumor cell growth inhibition, MTT; type: cell-based; conditions: Homo sapiens; for IC50: MG-63, 72 h; for inhibition at 16 µg/mL: MG-63, 16 μg/mL compound, 72 h, read-out: IR (cell proliferation inhibition rate)
Method in brief: as §2

PC-3 cell line = experiment: solid tumor cell growth inhibition, MTT; type: cell-based; conditions: Homo sapiens; for IC50: PC-3, 72 h; for inhibition at 16 µg/mL: PC-3, 16 μg/mL compound, 72 h, read-out: IR (cell proliferation inhibition rate)
Method in brief: as §2

PANC-1 cell line = experiment: solid tumor cell growth inhibition, MTT; type: cell-based; conditions: Homo sapiens; for IC50: PANC-1, 72 h; for inhibition at 16 µg/mL: PANC-1, 16 μg/mL compound, 72 h, read-out: IR (cell proliferation inhibition rate)
Method in brief: as §2

A549 cell line = experiment: solid tumor cell growth inhibition, MTT; type: cell-based; conditions: Homo sapiens; for IC50: A549, 72 h; for inhibition at 16 µg/mL: A549, 16 μg/mL compound, 72 h, read-out: IR (cell proliferation inhibition rate)
Method in brief: as §2

Hela cell line = experiment: solid tumor cell growth inhibition, MTT; type: cell-based; conditions: Homo sapiens, 72 h; for IC50: HeLa; for inhibition at 16 µg/mL: Hela, 16 μg/mL compound, read-out: IR (cell proliferation inhibition rate)
Method in brief: as §2

CNE cell line = experiment: solid tumor cell growth inhibition, MTT; type: cell-based; conditions: Homo sapiens, 72 h; for inhibition at 16 µg/mL: 16 μg/mL compound, read-out: IR (cell proliferation inhibition rate)
Method in brief: as §2

MGC 803 cell line = experiment: solid tumor cell growth inhibition, MTT; type: cell-based; conditions: Homo sapiens; for inhibition at 16 µg/mL: MGC 803, 16 μg/mL compound, 72 h, read-out: IR (cell proliferation inhibition rate); for IC50: MGC 803, 72 h
Method in brief: as §2

Becap37 cell line = experiment: solid tumor cell growth inhibition, MTT; type: cell-based; conditions: Homo sapiens; for inhibition at 16 µg/mL: Becap37, 16 μg/mL compound, 72 h, read-out: IR (cell proliferation inhibition rate); for IC50: Becap37, 72 h
Method in brief: as §2

CaES-17 cell line = experiment: solid tumor cell growth inhibition, MTT; type: cell-based; conditions: Homo sapiens, CaEs17; for inhibition at 16 µg/mL: CaES-17, 16 μg/mL compound, 72 h, read-out: IR (cell proliferation inhibition rate); for IC50: CaES-17, 72 h
Method in brief: as §2

RPMI8226 cell line = experiment: multiple myeloma cell growth inhibition, MTT; type: cell-based; conditions: Homo sapiens, RPMI-8226; for inhibition at 16 µg/mL: RPMI8226, 16 μg/mL compound, 72 h, read-out: IR (cell proliferation inhibition rate); for IC50: RPMI8226, 72 h
Method in brief: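 RPMI8226 cells (6000 per well) in RPMI 1640 with 10% FBS were exposed to several concentrations of compound for 72 h at 37° C and 5% CO2. Viable cells were quantified by MTT, with inhibition set to 0% in untreated controls.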

Compound	IC50 (H9 cell line)	inhibition at 16 µg/mL (H9 cell line)	inhibition at 16 µg/mL (NB4 cell line)	IC50 (NB4 cell line)	inhibition at 16 µg/mL (Kasumi-1 cell line)	IC50 (Kasumi-1 cell line)	IC50 (K562/adr cell line)	inhibition at 16 µg/mL (K562/adr cell line)	inhibition at 16 µg/mL (Jurkat cell line)	IC50 (Jurkat cell line)	inhibition at 16 µg/mL (Hep G2 cell line)	IC50 (Hep G2 cell line)	inhibition at 16 µg/mL (U87 MG cell line)	IC50 (U87 MG cell line)	IC50 (Hep-2 cell line)	inhibition at 16 µg/mL (Hep-2 cell line)	inhibition at 16 µg/mL (RKO cell line)	IC50 (RKO cell line)	IC50 (SK-OV-3 cell line)	inhibition at 16 µg/mL (SK-OV-3 cell line)	other results
CCN(CC)CCCNC(=O)C1C[C@@]2(C)C(CC[C@]3(C)C2CC=C2C4CC(C)(C)CC[C@]4(C(=O)O)CC[C@]23C)C(C)(C)C1=O (some centres unmarked) [BS-OA-108]	15.3 µg/mL (≈ 25 µM)	57.7%	92.4%	6.86 µg/mL (≈ 11.2 µM)	74.5%	10.2 µg/mL (≈ 16.6 µM)	4.83 µg/mL (≈ 7.91 µM)	96.1%	66.5%	12.6 µg/mL (≈ 20.6 µM)	42.3%	> 16 µg/mL	18.5%	> 16 µg/mL	> 16 µg/mL	22.7%	63.2%	14.3 µg/mL (≈ 23.4 µM)	> 16 µg/mL	-15.6%	IC50 (MG-63 cell line): > 16 µg/mL; inhibition at 16 µg/mL (MG-63 cell line): 47.4%; IC50 (PC-3 cell line): > 16 µg/mL; inhibition at 16 µg/mL (PC-3 cell line): -8.2%; IC50 (PANC-1 cell line): > 16 µg/mL; inhibition at 16 µg/mL (PANC-1 cell line): 21.6%; IC50 (A549 cell line): > 16 µg/mL; inhibition at 16 µg/mL (A549 cell line): 27.5%; IC50 (Hela cell line): > 16 µg/mL; inhibition at 16 µg/mL (Hela cell line): 43%; inhibition at 16 µg/mL (CNE cell line): 42.7%; IC50 (CNE cell line): > 16 µg/mL; inhibition at 16 µg/mL (MGC 803 cell line): 13.1%; IC50 (MGC 803 cell line): > 16 µg/mL; inhibition at 16 µg/mL (Becap37 cell line): 38.4%; IC50 (Becap37 cell line): > 16 µg/mL; inhibition at 16 µg/mL (CaES-17 cell line): 32%; IC50 (CaES-17 cell line): > 16 µg/mL; inhibition at 16 µg/mL (RPMI8226 cell line): 97.3%; IC50 (RPMI8226 cell line): 6.4 µg/mL (≈ 10.5 µM)
CN(C)CCCNC(=O)C1C[C@@]2(C)C(CC[C@]3(C)C2CC=C2C4CC(C)(C)CC[C@]4(C(=O)O)CC[C@]23C)C(C)(C)C1=O (some centres unmarked) [BS-OA-109]	> 16 µg/mL	39.4%	76.6%	10.8 µg/mL (≈ 18.5 µM)	36.2%	> 16 µg/mL	6.8 µg/mL (≈ 11.7 µM)	86.2%	32.3%	> 16 µg/mL	32.1%	> 16 µg/mL	-3.8%	> 16 µg/mL	> 16 µg/mL	11.3%	-4.9%	> 16 µg/mL	> 16 µg/mL	-13.5%	IC50 (MG-63 cell line): > 16 µg/mL; inhibition at 16 µg/mL (MG-63 cell line): 18.9%; IC50 (PC-3 cell line): > 16 µg/mL; inhibition at 16 µg/mL (PC-3 cell line): -5.5%; IC50 (PANC-1 cell line): > 16 µg/mL; inhibition at 16 µg/mL (PANC-1 cell line): 12.9%; IC50 (A549 cell line): > 16 µg/mL; inhibition at 16 µg/mL (A549 cell line): 7.5%; IC50 (Hela cell line): > 16 µg/mL; inhibition at 16 µg/mL (Hela cell line): 23.6%; inhibition at 16 µg/mL (CNE cell line): 36.5%; IC50 (CNE cell line): > 16 µg/mL; inhibition at 16 µg/mL (MGC 803 cell line): 4.9%; IC50 (MGC 803 cell line): > 16 µg/mL; inhibition at 16 µg/mL (Becap37 cell line): 19.7%; IC50 (Becap37 cell line): > 16 µg/mL; inhibition at 16 µg/mL (CaES-17 cell line): 4.1%; IC50 (CaES-17 cell line): > 16 µg/mL; inhibition at 16 µg/mL (RPMI8226 cell line): 96%; IC50 (RPMI8226 cell line): 6.21 µg/mL (≈ 10.7 µM)
